Data from patent publication US11919887B2, “Substituted tetrahydrofurans as modulators of sodium channels” (Vertex Pharmaceuticals Incorporated, priority 2019, dated 2024).

These compounds were tested against human Nav 1.8 (Homo sapiens, UniProt Q9Y5Y9) (assay: E-VIPR assay detecting and measuring Nav inhibition (HEK cells expressing truncated human Nav 1.8)). Conditions: in the Absence of Human Serum in the E-VIPR Assay.
Format: cell-based
Procedure, shortened: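 HEK cells expressing truncated human Nav1.8, transduced with KIR2.1 BacMam, were loaded with CC2-DMPE/DiSBAC6(3) FRET dyes and tested under electrical stimulation (E-VIPR). Compounds were run as 11-point 3-fold dilutions, top 300 nM final, 0.625% DMSO, with or without 25% human serum.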

human Nav 1.8, sequence (Q9Y5Y9 whole entry, looked up, the tested form may be a part): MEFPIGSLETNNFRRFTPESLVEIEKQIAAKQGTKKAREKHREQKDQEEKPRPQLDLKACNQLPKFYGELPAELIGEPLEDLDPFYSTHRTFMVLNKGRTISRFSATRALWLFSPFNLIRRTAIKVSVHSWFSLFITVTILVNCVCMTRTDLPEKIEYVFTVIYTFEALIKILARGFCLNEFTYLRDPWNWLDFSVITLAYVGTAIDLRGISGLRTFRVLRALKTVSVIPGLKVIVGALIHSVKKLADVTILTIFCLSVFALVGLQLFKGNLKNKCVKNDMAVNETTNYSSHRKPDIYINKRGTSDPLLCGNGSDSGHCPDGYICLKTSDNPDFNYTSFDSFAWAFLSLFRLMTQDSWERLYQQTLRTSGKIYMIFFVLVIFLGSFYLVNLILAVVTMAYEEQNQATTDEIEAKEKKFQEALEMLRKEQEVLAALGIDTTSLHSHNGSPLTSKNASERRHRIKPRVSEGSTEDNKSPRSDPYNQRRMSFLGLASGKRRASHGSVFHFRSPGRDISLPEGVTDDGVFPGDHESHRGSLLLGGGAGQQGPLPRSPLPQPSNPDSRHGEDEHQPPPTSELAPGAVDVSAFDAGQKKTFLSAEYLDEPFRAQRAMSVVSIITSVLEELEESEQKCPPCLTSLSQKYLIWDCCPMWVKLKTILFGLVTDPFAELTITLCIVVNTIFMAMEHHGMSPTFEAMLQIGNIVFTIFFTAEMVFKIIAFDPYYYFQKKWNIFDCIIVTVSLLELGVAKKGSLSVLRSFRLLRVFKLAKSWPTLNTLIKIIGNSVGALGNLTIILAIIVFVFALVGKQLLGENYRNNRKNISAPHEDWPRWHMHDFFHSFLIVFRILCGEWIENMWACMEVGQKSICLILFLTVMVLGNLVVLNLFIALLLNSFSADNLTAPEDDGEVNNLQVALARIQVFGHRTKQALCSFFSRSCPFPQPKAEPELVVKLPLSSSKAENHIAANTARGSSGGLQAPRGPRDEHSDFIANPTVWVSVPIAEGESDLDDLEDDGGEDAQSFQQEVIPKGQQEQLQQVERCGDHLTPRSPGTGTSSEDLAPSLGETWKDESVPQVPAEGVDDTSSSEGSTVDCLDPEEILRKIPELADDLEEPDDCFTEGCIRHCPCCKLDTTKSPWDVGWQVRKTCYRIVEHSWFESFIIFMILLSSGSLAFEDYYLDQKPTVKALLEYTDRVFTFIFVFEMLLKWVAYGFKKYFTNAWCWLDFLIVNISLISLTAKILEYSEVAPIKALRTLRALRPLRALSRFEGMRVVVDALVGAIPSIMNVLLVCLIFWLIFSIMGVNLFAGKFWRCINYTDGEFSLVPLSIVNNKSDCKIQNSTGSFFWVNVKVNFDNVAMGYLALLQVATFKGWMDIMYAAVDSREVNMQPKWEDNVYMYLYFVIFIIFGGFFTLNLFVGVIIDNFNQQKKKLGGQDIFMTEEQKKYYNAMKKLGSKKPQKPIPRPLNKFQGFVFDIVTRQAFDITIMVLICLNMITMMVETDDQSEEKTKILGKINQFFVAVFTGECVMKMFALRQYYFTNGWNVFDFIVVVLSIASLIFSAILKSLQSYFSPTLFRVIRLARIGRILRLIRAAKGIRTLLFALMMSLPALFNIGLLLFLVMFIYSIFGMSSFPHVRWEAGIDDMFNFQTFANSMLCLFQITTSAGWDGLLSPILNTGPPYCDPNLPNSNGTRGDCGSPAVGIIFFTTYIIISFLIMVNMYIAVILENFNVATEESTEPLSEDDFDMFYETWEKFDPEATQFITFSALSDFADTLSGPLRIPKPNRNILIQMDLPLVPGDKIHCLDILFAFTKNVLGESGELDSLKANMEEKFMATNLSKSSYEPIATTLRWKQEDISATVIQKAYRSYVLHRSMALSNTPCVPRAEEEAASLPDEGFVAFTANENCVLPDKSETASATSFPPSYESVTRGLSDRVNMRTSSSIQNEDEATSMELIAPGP

SMILES	IC50 [nM]
COc1c([C@@H]2[C@@H](C)[C@](C)(C(F)(F)F)O[C@H]2C(=O)Nc2ccnc(C(N)=O)c2)ccc(F)c1F [Compound 50, 4-[[(2R,3S,4R,5R)-3-(3,4-difluoro-2-methoxy-phenyl)-4,5-dimethyl-5-(trifluoromethyl)tetrahydrofuran-2-carbonyl]amino]pyridine-2-carboxamide]	10 to 100

Same assay, conditions: in the Absence of Human Serum in the E-VIPR Assay; read-out: IC50

SMILES	IC50 [nM]
COc1nc(C(F)F)ccc1[C@@H]1[C@@H](C(=O)Nc2ccnc(C(N)=O)c2)O[C@](C)(C(F)(F)F)[C@@H]1C (stereo in doubt) [Compound 141, rel-(2S,3R,4R,5S)-4-[[3-[6-(difluoromethyl)-2-methoxy-3-pyridyl]-4,5-dimethyl-5-(trifluoromethyl)tetrahydrofuran-2-carbonyl]amino]pyridine-2-carboxamide]	> 1000
COc1c([C@H]2[C@H](C(=O)Nc3cccc(C(N)=O)n3)O[C@@](C)(C(F)(F)F)[C@H]2C)ccc(F)c1F [Compound 114, 6-[[(2R,3S,4S,5R)-3-(3,4-difluoro-2-methoxy-phenyl)-4,5-dimethyl-5-(trifluoromethyl)tetrahydrofuran-2-carbonyl]amino]pyridine-2-carboxamide]	10 to 100
COc1c([C@H]2[C@H](C(=O)Nc3cncc(C(N)=O)n3)O[C@@](C)(C(F)(F)F)[C@H]2C)ccc(F)c1F [Compound 117, 6-[[(2R,3S,4S,5R)-3-(3,4-difluoro-2-methoxy-phenyl)-4,5-dimethyl-5-(trifluoromethyl)tetrahydrofuran-2-carbonyl]amino]pyrazine-2-carboxamide]	10 to 100
COc1c([C@H]2[C@H](C(=O)Nc3cncc(C(N)=O)c3)O[C@@](C)(C(F)(F)F)[C@H]2C)ccc(F)c1F [Compound 118, 5-[[(2R,3S,4S,5R)-3-(3,4-difluoro-2-methoxy-phenyl)-4,5-dimethyl-5-(trifluoromethyl)tetrahydrofuran-2-carbonyl]amino]pyridine-3-carboxamide]	< 10
COc1c([C@H]2[C@H](C(=O)Nc3cc(C(N)=O)ncc3C)O[C@@](C)(C(F)(F)F)[C@H]2C)ccc(F)c1F [Compound 119, 4-[[(2R,3S,4S,5R)-3-(3,4-difluoro-2-methoxy-phenyl)-4,5-dimethyl-5-(trifluoromethyl)tetrahydrofuran-2-carbonyl]amino]-5-methyl-pyridine-2-carboxamide]	< 10
COc1c([C@H]2[C@H](C(=O)Nc3cc(C(N)=O)ccn3)O[C@@](C)(C(F)(F)F)[C@H]2C)ccc(F)c1F [Compound 120, 2-[[(2R,3S,4S,5R)-3-(3,4-difluoro-2-methoxy-phenyl)-4,5-dimethyl-5-(trifluoromethyl)tetrahydrofuran-2-carbonyl]amino]pyridine-4-carboxamide]	10 to 100

Same assay, conditions: in the Presence of Human Serum in the E-VIPR Assay

SMILES	IC50 [nM]
COc1c([C@@H]2[C@@H](C(=O)Nc3ccnc(C(N)=O)c3)O[C@](C)(C(F)(F)F)[C@@H]2C)ccc(F)c1F [Compound 6, (2S,3R,4R,5S)-4-[[3-(3,4-difluoro-2-methoxy-phenyl)-4,5-dimethyl-5-(trifluoromethyl)tetrahydrofuran-2-carbonyl]amino]pyridine-2-carboxamide]	> 1000
COc1c([C@H]2[C@H](C(=O)Nc3ccnc(C(N)=O)c3)O[C@@](C)(C(F)(F)F)[C@H]2C)ccc(F)c1F [Compound 7, (2R,3S,4S,5R)-4-[[3-(3,4-difluoro-2-methoxy-phenyl)-4,5-dimethyl-5-(trifluoromethyl)tetrahydrofuran-2-carbonyl]amino]pyridine-2-carboxamide]	< 10

Same assay, conditions: in the Presence of Human Serum in the E-VIPR Assay; read-out: IC50

SMILES	IC50 [nM]
Cc1cnc(C(N)=O)cc1NC(=O)[C@@H]1O[C@@](C)(C(F)(F)F)[C@@H](C)[C@H]1c1ccc(F)c(F)c1OC(F)F (stereo in doubt) [Compound 150, rel-(2R,3S,4S,5R)-4-[[3-[2-(difluoromethoxy)-3,4-difluoro-phenyl]-4,5-dimethyl-5-(trifluoromethyl)tetrahydrofuran-2-carbonyl]amino]-5-methyl-pyridine-2-carboxamide]	> 1000
Cc1cnc(C(N)=O)cc1NC(=O)[C@H]1O[C@](C)(C(F)(F)F)[C@H](C)[C@@H]1c1ccc(F)c(F)c1OC(F)F (stereo in doubt) [Compound 151, rel-(2S,3R,4R,5S)-4-[[3-[2-(difluoromethoxy)-3,4-difluoro-phenyl]-4,5-dimethyl-5-(trifluoromethyl)tetrahydrofuran-2-carbonyl]amino]-5-methyl-pyridine-2-carboxamide]	10 to 100
Cc1c(F)ccc([C@@H]2[C@@H](C(=O)Nc3ccnc(C(N)=O)c3)O[C@](C)(C(F)(F)F)[C@@H]2C)c1OC(F)F (stereo in doubt) [compound 53]	< 10
CCOc1c([C@@H]2[C@@H](C(=O)Nc3ccnc(C(N)=O)c3)O[C@](C)(C(F)(F)F)[C@@H]2C)ccc(F)c1F [Compound 8, (2S,3R,4R,5S)-4-[[3-(2-ethoxy-3,4-difluoro-phenyl)-4,5-dimethyl-5-(trifluoromethyl)tetrahydrofuran-2-carbonyl]amino]pyridine-2-carboxamide]	> 1000
CCOc1c([C@H]2[C@H](C(=O)Nc3ccnc(C(N)=O)c3)O[C@@](C)(C(F)(F)F)[C@H]2C)ccc(F)c1F [Compound 9, (2R,3S,4S,5R)-4-[[3-(2-ethoxy-3,4-difluoro-phenyl)-4,5-dimethyl-5-(trifluoromethyl)tetrahydrofuran-2-carbonyl]amino]pyridine-2-carboxamide]	< 10
C[C@@H]1[C@H](c2ccc(F)c(F)c2OC(F)F)[C@@H](C(=O)Nc2ccnc(C(N)=O)c2)O[C@]1(C)C(F)(F)F [Compound 10, (2S,3R,4R,5S)-4-[[3-[2-(difluoromethoxy)-3,4-difluoro-phenyl]-4,5-dimethyl-5-(trifluoromethyl)tetrahydrofuran-2-carbonyl]amino]pyridine-2-carboxamide]	> 1000
C[C@H]1[C@@H](c2ccc(F)c(F)c2OC(F)F)[C@H](C(=O)Nc2ccnc(C(N)=O)c2)O[C@@]1(C)C(F)(F)F [Compound 11, (2R,3S,4S,5R)-4-[[3-[2-(difluoromethoxy)-3,4-difluoro-phenyl]-4,5-dimethyl-5-(trifluoromethyl)tetrahydrofuran-2-carbonyl]amino]pyridine-2-carboxamide]	< 10
C[C@H]1[C@@H](c2ccc(F)c(F)c2OC(F)F)[C@H](C(=O)Nc2cc[n+]([O-])c(C(N)=O)c2)O[C@@]1(C)C(F)(F)F [Compound 18, (2R,3S,4S,5R)-4-[[3-[2-(difluoromethoxy)-3,4-difluoro-phenyl]-4,5-dimethyl-5-(trifluoromethyl)tetrahydrofuran-2-carbonyl]amino]-1-oxido-pyridin-1-ium-2-carboxamide]	< 10
COc1c([C@H]2[C@H](C(=O)Nc3cc[n+]([O-])c(C(N)=O)c3)O[C@@](C)(C(F)(F)F)[C@H]2C)ccc(F)c1F [Compound 19, (2R,3S,4S,5R)-4-[[3-(3,4-difluoro-2-methoxy-phenyl)-4,5-dimethyl-5-(trifluoromethyl)tetrahydrofuran-2-carbonyl]amino]-1-oxido-pyridin-1-ium-2-carboxamide]	< 10
COc1c([C@H]2C[C@](C)(C(F)(F)F)O[C@@H]2C(=O)Nc2ccnc(C(N)=O)c2)ccc(F)c1Cl [Compound 21, (2S,3R,5R)-4-[[3-(3-chloro-4-fluoro-2-methoxy-phenyl)-5-methyl-5-(trifluoromethyl)tetrahydrofuran-2-carbonyl]amino]pyridine-2-carboxamide]	> 1000
COc1c([C@@H]2C[C@@](C)(C(F)(F)F)O[C@H]2C(=O)Nc2ccnc(C(N)=O)c2)ccc(F)c1Cl [Compound 23, (2R,3S,5S)-4-[[3-(3-chloro-4-fluoro-2-methoxy-phenyl)-5-methyl-5-(trifluoromethyl)tetrahydrofuran-2-carbonyl]amino]pyridine-2-carboxamide]	10 to 100
C[C@H]1[C@@H](c2ccc(F)c(F)c2O)[C@H](C(=O)Nc2ccnc(C(N)=O)c2)O[C@@]1(C)C(F)(F)F [Compound 27, (2R,3S,4S,5R)-4-[[3-(3,4-difluoro-2-hydroxy-phenyl)-4,5-dimethyl-5-(trifluoromethyl)tetrahydrofuran-2-carbonyl]amino]pyridine-2-carboxamide]	10 to 100
CCOc1c([C@H]2[C@H](C(=O)Nc3cc[n+]([O-])c(C(N)=O)c3)O[C@@](C)(C(F)(F)F)[C@H]2C)ccc(F)c1F [Compound 55, (2R,3S,4S,5R)-4-[[3-(2-ethoxy-3,4-difluoro-phenyl)-4,5-dimethyl-5-(trifluoromethyl)tetrahydrofuran-2-carbonyl]amino]-1-oxido-pyridin-1-ium-2-carboxamide]	< 10
[2H]C([2H])([2H])Oc1c([C@H]2[C@H](C(=O)Nc3cc[n+]([O-])c(C(N)=O)c3)O[C@@](C)(C(F)(F)F)[C@H]2C)ccc(F)c1F [Compound 56, 4-[[(2R,3S,4S,5R)-3-[3,4-difluoro-2-(trideuteriomethoxy)phenyl]-4,5-dimethyl-5-(trifluoromethyl)tetrahydrofuran-2-carbonyl]amino]-1-oxido-pyridin-1-ium-2-carboxamide]	< 10
C[C@H]1[C@@H](c2ccc(F)c(F)c2O)[C@H](C(=O)Nc2cc[n+]([O-])c(C(N)=O)c2)O[C@@]1(C)C(F)(F)F [Compound 57, 4-[[(2R,3S,4S,5R)-3-(3,4-difluoro-2-hydroxy-phenyl)-4,5-dimethyl-5-(trifluoromethyl)tetrahydrofuran-2-carbonyl]amino]-1-oxido-pyridin-1-ium-2-carboxamide]	> 1000
COc1c([C@@H]2[C@H](C)[C@H](C(C)C)O[C@H]2C(=O)Nc2ccnc(C(N)=O)c2)ccc(F)c1F [Compound 113, 4-[[(2R,3S,4S,5S)-3-(3,4-difluoro-2-methoxy-phenyl)-5-isopropyl-4-methyl-tetrahydrofuran-2-carbonyl]amino]pyridine-2-carboxamide]	10 to 100
